# Experimental data as given in US10227344B2, “CK2 inhibitors, compositions and methods thereof” (Polaris Pharmaceuticals, Inc., priority 2016, dated 2019).
# How the values were obtained:
# Assay type in all cases: cell-based
# NAMALWA = experiment: Cancer cell panel, cell viability (resazurin): Burkitt's Lymphoma, NAMALWA; settings: 72 hours, labelled drug combined with Example 3
# Caov-3 = experiment: Cancer cell panel, cell viability (resazurin): Ovarian, Caov-3; settings: Caov-3 (Ovarian), 72 hours; labelled drug combined with Example 3
# MDA-MB-453 = experiment: Cancer cell panel, cell viability (resazurin): Breast, MDA-MB-453; settings: MDA-MB-453 (Breast), 72 hours; labelled drug combined with Example 3
# H460 = experiment: Cancer cell panel, cell viability (resazurin): NSCLC, H460; settings: 72 hours, labelled drug combined with Example 3
# Method: (§1) Cells were plated in 96-well plates and treated for 72 hours with a serially diluted CK2 inhibitor or anti-cancer drug or their combination. The suspension cell lines were treated right after plating, while the adherent cells were allowed to attach overnight prior to the start of the treatment.
# (§2) Cell viability was determined by adding resazurin to cell cultures and measuring fluorescence with a plate reader. Relative cell viability was calculated by dividing the cell viability signal from a test sample by that of a non-treated control. […] Bliss Independence and Highest Single Agent models were used to determine if there is synergy, additivity or antagonism between the CK2 inhibitor and an anti-cancer drug.
# A549 = experiment: Cancer cell panel, cell viability (resazurin): NSCLC, A549; settings: 72 hours, labelled drug combined with Example 3
# 786-O = experiment: Cancer cell panel, cell viability (resazurin): Renal, 786-O; settings: 786-O (Renal), 72 hours; labelled drug combined with Example 3
# Method: as §1, §2
# MDA-MB-157 = experiment: Cancer cell panel, cell viability (resazurin): Breast, MDA-MB-157; settings: MDA-MB-157 (Breast), 72 hours; labelled drug combined with Example 3
# MDA-MB-231 = experiment: Cancer cell panel, cell viability (resazurin): Breast, MDA-MB-231; settings: MDA-MB-231 (Breast), 72 hours; labelled drug combined with Example 3
# SK-MEL-3 = experiment: Cancer cell panel, cell viability (resazurin): Melanoma, SK-MEL-3; settings: SK-MEL-3 (Melanoma), 72 hours; labelled drug combined with Example 3
# Method: as §1, §2
# Ramos = experiment: Cancer cell panel, cell viability (resazurin): Burkitt's Lymphoma, Ramos; settings: 72 hours, labelled drug combined with Example 3
# HL60 = experiment: Cancer cell panel, cell viability (resazurin): Leukemia, HL60; settings: 72 hours, labelled drug combined with Example 3
# EOL-1 = experiment: Cancer cell panel, cell viability (resazurin): Leukemia, EOL-1; settings: EOL-1 (Leukemia), 72 hours; labelled drug combined with Example 3
# MCF7 = experiment: Cancer cell panel, cell viability (resazurin): Breast, MCF7; settings: 72 hours, labelled drug combined with Example 3
# Method: as §1, §2
# U87MG = experiment: Cancer cell panel, cell viability (resazurin): Glioblastoma, U87MG; settings: 72 hours, labelled drug combined with Example 3
# H1299 = experiment: Cancer cell panel, cell viability (resazurin): NSCLC, H1299; settings: 72 hours, labelled drug combined with Example 3
# HCT116 = experiment: Cancer cell panel, cell viability (resazurin): Colon, HCT116; settings: 72 hours, labelled drug combined with Example 3
# A2780 = experiment: Cancer cell panel, cell viability (resazurin): Ovarian, A2780; settings: 72 hours, labelled drug combined with Example 3
# H23 = experiment: Cancer cell panel, cell viability (resazurin): NSCLC, H23; settings: 72 hours, labelled drug combined with Example 3
# Mia-Paca-2 = experiment: Cancer cell panel, cell viability (resazurin): Pancreatic, Mia-Paca-2; settings: Mia-Paca-2 (Pancreatic), 72 hours; labelled drug combined with Example 3
# Method: as §1, §2
# T47D = experiment: Cancer cell panel, cell viability (resazurin): Breast, T47D; settings: 72 hours, labelled drug combined with Example 3
# WM-115 = experiment: Cancer cell panel, cell viability (resazurin): Melanoma, WM-115; settings: WM-115 (Melanoma), 72 hours; labelled drug combined with Example 3
# Panc-1 = experiment: Cancer cell panel, cell viability (resazurin): Pancreatic, Panc-1; settings: Panc-1 (Pancreatic), 72 hours; labelled drug combined with Example 3
# Method: as §1, §2
# Caki-2 = experiment: Cancer cell panel, cell viability (resazurin): Renal, Caki-2; settings: Caki-2 (Renal), 72 hours; labelled drug combined with Example 3
# Method: as §1, §2
compound,measurement,setting,value
"Nc1ccn([C@@H]2O[C@H](CO)[C@@H](O)C2(F)F)c(=O)n1 [Gemcitabine, gemcitabine]","synergy, additivity or antagonism of the combination of Example 3 with the anti-cancer drug",NAMALWA,+ + (Slight synergy relative to each agent alone (CI = 0.75-0.9 by Bliss Independence Model))
same,"synergy, additivity or antagonism of the combination of Example 3 with the anti-cancer drug",Caov-3,+ (Additive relative to each agent alone (CI = 0.9-1 by Bliss Independence Model and <0.9 by Highest Single Agent Model))
same,"synergy, additivity or antagonism of the combination of Example 3 with the anti-cancer drug",MDA-MB-453,+ + (Slight synergy relative to each agent alone (CI = 0.75-0.9 by Bliss Independence Model))
same,"synergy, additivity or antagonism of the combination of Example 3 with the anti-cancer drug",H460,+ + (Slight synergy relative to each agent alone (CI = 0.75-0.9 by Bliss Independence Model))
same,"synergy, additivity or antagonism of the combination of Example 3 with the anti-cancer drug",A549,+ + + + (Strong synergy relative to each agent alone (CI < 0.4 by Bliss Independence Model))
same,"synergy, additivity or antagonism of the combination of Example 3 with the anti-cancer drug",786-O,+ + + (Synergy relative to each agent alone (CI = 0.4-0.74 by Bliss Independence Model))
same,"synergy, additivity or antagonism of the combination of Example 3 with the anti-cancer drug",MDA-MB-157,+ + (Slight synergy relative to each agent alone (CI = 0.75-0.9 by Bliss Independence Model))
same,"synergy, additivity or antagonism of the combination of Example 3 with the anti-cancer drug",MDA-MB-231,+ + (Slight synergy relative to each agent alone (CI = 0.75-0.9 by Bliss Independence Model))
same,"synergy, additivity or antagonism of the combination of Example 3 with the anti-cancer drug",SK-MEL-3,+ (Additive relative to each agent alone (CI = 0.9-1 by Bliss Independence Model and <0.9 by Highest Single Agent Model))
same,"synergy, additivity or antagonism of the combination of Example 3 with the anti-cancer drug",Ramos,+ + (Slight synergy relative to each agent alone (CI = 0.75-0.9 by Bliss Independence Model))
same,"synergy, additivity or antagonism of the combination of Example 3 with the anti-cancer drug",HL60,+ + (Slight synergy relative to each agent alone (CI = 0.75-0.9 by Bliss Independence Model))
same,"synergy, additivity or antagonism of the combination of Example 3 with the anti-cancer drug",EOL-1,+ + + + (Strong synergy relative to each agent alone (CI < 0.4 by Bliss Independence Model))
same,"synergy, additivity or antagonism of the combination of Example 3 with the anti-cancer drug",MCF7,+ (Additive relative to each agent alone (CI = 0.9-1 by Bliss Independence Model and <0.9 by Highest Single Agent Model))
same,"synergy, additivity or antagonism of the combination of Example 3 with the anti-cancer drug",U87MG,+ (Additive relative to each agent alone (CI = 0.9-1 by Bliss Independence Model and <0.9 by Highest Single Agent Model))
same,"synergy, additivity or antagonism of the combination of Example 3 with the anti-cancer drug",H1299,+ (Additive relative to each agent alone (CI = 0.9-1 by Bliss Independence Model and <0.9 by Highest Single Agent Model))
same,"synergy, additivity or antagonism of the combination of Example 3 with the anti-cancer drug",HCT116,+ (Additive relative to each agent alone (CI = 0.9-1 by Bliss Independence Model and <0.9 by Highest Single Agent Model))
same,"synergy, additivity or antagonism of the combination of Example 3 with the anti-cancer drug",A2780,+ + + (Synergy relative to each agent alone (CI = 0.4-0.74 by Bliss Independence Model))
same,"synergy, additivity or antagonism of the combination of Example 3 with the anti-cancer drug",H23,+ (Additive relative to each agent alone (CI = 0.9-1 by Bliss Independence Model and <0.9 by Highest Single Agent Model))
same,"synergy, additivity or antagonism of the combination of Example 3 with the anti-cancer drug",Mia-Paca-2,+ + (Slight synergy relative to each agent alone (CI = 0.75-0.9 by Bliss Independence Model))
same,"synergy, additivity or antagonism of the combination of Example 3 with the anti-cancer drug",T47D,+ (Additive relative to each agent alone (CI = 0.9-1 by Bliss Independence Model and <0.9 by Highest Single Agent Model))
same,"synergy, additivity or antagonism of the combination of Example 3 with the anti-cancer drug",WM-115,+ (Additive relative to each agent alone (CI = 0.9-1 by Bliss Independence Model and <0.9 by Highest Single Agent Model))
same,"synergy, additivity or antagonism of the combination of Example 3 with the anti-cancer drug",Panc-1,+ (Additive relative to each agent alone (CI = 0.9-1 by Bliss Independence Model and <0.9 by Highest Single Agent Model))
same,"synergy, additivity or antagonism of the combination of Example 3 with the anti-cancer drug",Caki-2,+ (Additive relative to each agent alone (CI = 0.9-1 by Bliss Independence Model and <0.9 by Highest Single Agent Model))
